Reference: US10035800B2 (AbbVie Inc., priority 2013, dated 2018)

Key:
BRD4 (BDII_E352-M457) = target: T1, BRD4 (BDII_E352-M457) (Homo sapiens, UniProt O60885); experiment: TR-FRET bromodomain binding assay, second bromodomain of BRD4; conditions: 30 nM probe
T1 construct: protocol; made in house
Procedure, shortened: (§1)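 Displacement of a fluorescent Alexa647 BET-inhibitor probe (100 nM with BDI, 30 nM with BDII) from His-tagged BRD4 bromodomains was monitored by europium TR-FRET after one hour at room temperature. Data were normalized to no-compound and 1 μM unlabelled probe controls, fitted with a four-parameter logistic, and IC50s converted to Ki.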

[1] = tested on: breast cancer cell line MX-1; experiment: MX-1 cell line proliferation assay; type: cell-based; conditions: MX-1 cells, 3-day proliferation assay, Cell Titer Glo; read-out: Cellular proliferation: EC50
Experimental: MX-1 Cell Line Proliferation Assay
The impact of compounds of the Examples on cancer cell proliferation was determined using the breast cancer cell line MX-1 (ATCC) in a 3-day proliferation assay and the data are reported in Table 1. MX-1 cells were maintained in RPMI 1640 medium (Sigma) supplemented with 10% FBS at 37 C.° and an atmosphere of 5% CO2. For compound testing, MX-1 cells were plated in 96-well black bottom plates at a density of 5000 cells/well in 90 μL of culture media and incubated at 37° overnight to allow cell adhesion and spreading. Compound dilution series were prepared in DMSO via a 3-fold serial dilution from 3 mM to 0.1 μM. The DMSO dilution series were then diluted 1:100 in phosphate buffered saline, and 10 μL of the resulted solution were added to the appropriate wells of the MX-1 cell plate. The final compound concentrations in the wells were 3, 1, 0.3, 0.1, 0.03, 0.01, 0.003, 0.001, 0.0003, and 0.0001 μM or 1, 0.3, 0.1, 0.03, 0.01, 0.003, 0.001, 0.0003, 0.0001, and 0.00003 μM.
Luminescence readings from the Cell Titer Glo assay were normalized to the DMSO treated cells and analyzed using the GraphPad Prism software with sigmoidal curve fitting to obtain EC50s. The minimum significant ratio (MSR) was determined to evaluate assay reproducibility (Eastwood et al., (2006) J Biomol Screen, 11: 253-261). The overall MSR was determined to be 2.1 and a moving MSR (last six run MSR overtime) has been <2.

BRD4 (BDI_K57-E168) = target: T2, BRD4 (BDI_K57-E168) (Homo sapiens, UniProt O60885); experiment: TR-FRET bromodomain binding assay, first bromodomain of BRD4; conditions: 100 nM probe
T2 construct: BD1: amino acids K57-E168; made in house
Procedure, shortened: as §1

[2] = TR-FRET assay protocol E (compound 9.19 μM-150 pM)
[3] = TR-FRET assay protocol G (compound 0.92 μM-15 pM)

| Structure (SMILES) | Ki (BRD4 (BDII_E352-M457); [2]) [µM] | EC50 [1] [µM] | Ki (BRD4 (BDI_K57-E168); [2]) [µM] | Ki (BRD4 (BDII_E352-M457); [3]) [µM] | Ki (BRD4 (BDI_K57-E168); [3]) [µM] |
| --- | --- | --- | --- | --- | --- |
| CC(C)CC1Nc2ccc(CS(C)(=O)=O)cc2-c2cn(C)c(=O)c3[nH]cc1c23 (racemic) [Example 19, 3-isobutyl-10-methyl-7-((methylsulfonyl)methyl)-3,4-dihydro-1H-1,4,10-triazadibenzo[cd,f]azulen-11(10H)-one] | 0.0438 | 0.37 | 0.246 |  |  |
| Cn1cc2c3c(c[nH]c3c1=O)CN(CC1CCN(C(=O)OC(C)(C)C)C1)c1ccc(CS(C)(=O)=O)cc1-2 (racemic) [Example 25, tert-butyl 3-((10-methyl-7-((methylsulfonyl)methyl)-11-oxo-10,11-dihydro-1H-1,4,10-triazadibenzo[cd,f]azulen-4(3H)-yl)methyl)pyrrolidine-1-carboxylate] | 0.000847 | 0.0087 | 0.00174 |  |  |
| Cn1cc2c3c(c[nH]c3c1=O)C(C(=O)NCc1ccccc1)N(c1ccc(F)cc1F)c1ccc(CS(C)(=O)=O)cc1-2 (racemic) [Example 159, N-benzyl-4-(2,4-difluorophenyl)-10-methyl-7-((methylsulfonyl)methyl)-11-oxo-3,4,10,11-tetrahydro-1H-1,4,10-triazadibenzo[cd,f]azulene-3-carboxamide] |  | 0.0578 |  | 0.0198 | 0.0386 |
| COc1cccc(OC)c1C1c2c[nH]c3c(=O)n(C)cc(c23)-c2cc(CS(C)(=O)=O)ccc2N1c1ccc(F)cc1F (racemic) [Example 221, 4-(2,4-difluorophenyl)-3-(2,6-dimethoxyphenyl)-10-methyl-7-((methylsulfonyl)methyl)-3,4-dihydro-1H-1,4,10-triazadibenzo[cd,f]azulen-11(10H)-one] |  | 0.033 |  | 0.0123 | 0.0316 |
| Cn1cc2c3c(c[nH]c3c1=O)C(CCN1C(=O)c3ccccc3C1=O)N(c1ccc(F)cc1F)c1ccc(CS(C)(=O)=O)cc1-2 (racemic) [Example 227, 2-(2-(4-(2,4-difluorophenyl)-10-methyl-7-((methylsulfonyl)methyl)-11-oxo-3,4,10,11-tetrahydro-1H-1,4,10-triazadibenzo[cd,f]azulen-3-yl)ethyl)isoindoline-1,3-dione] |  | 0.134 |  | 0.00118 | 0.00794 |
| Cn1cc2c3c(c[nH]c3c1=O)C(CCNC(=O)OCc1ccccc1)N(c1ccc(F)cc1F)c1ccc(CS(C)(=O)=O)cc1-2 (racemic) [Example 229, benzyl (2-(4-(2,4-difluorophenyl)-10-methyl-7-((methylsulfonyl)methyl)-11-oxo-3,4,10,11-tetrahydro-1H-1,4,10-triazadibenzo[cd,f]azulen-3-yl)ethyl)carbamate] |  | 0.0412 |  | 0.00196 | 0.00411 |
| Cn1cc2c3c(c[nH]c3c1=O)C(c1ccc(-n3ccnc3)cc1)N(c1ccc(F)cc1F)c1ccc(CS(C)(=O)=O)cc1-2 (racemic) [Example 234, 3-(4-(1H-imidazol-1-yl)phenyl)-4-(2,4-difluorophenyl)-10-methyl-7-((methylsulfonyl)methyl)-3,4-dihydro-1H-1,4,10-triazadibenzo[cd,f]azulen-11(10H)-one] |  | > 1 |  | 0.0094 | 0.0103 |
| Cn1cc2c3c(c[nH]c3c1=O)C(c1ccc(C#N)cc1)N(c1ccc(F)cc1F)c1ccc(CS(C)(=O)=O)cc1-2 (racemic) [Example 235, 4-(4-(2,4-difluorophenyl)-10-methyl-7-((methylsulfonyl)methyl)-11-oxo-3,4,10,11-tetrahydro-1H-1,4,10-triazadibenzo[cd,f]azulen-3-yl)benzonitrile] |  | 0.162 |  | 0.00651 | 0.0161 |
| Cn1cc2c3c(c[nH]c3c1=O)C(c1cccc(-c3ccccn3)c1)N(c1ccc(F)cc1F)c1ccc(CS(C)(=O)=O)cc1-2 (racemic) [Example 236, 4-(2,4-difluorophenyl)-10-methyl-7-((methylsulfonyl)methyl)-3-(3-(pyridin-2-yl)phenyl)-3,4-dihydro-1H-1,4,10-triazadibenzo[cd,f]azulen-11(10H)-one] |  | > 1 |  | 0.03 | 0.0859 |
| Cn1cc2c3c(c[nH]c3c1=O)C(CCCOc1ccccc1)N(c1ccc(F)cc1F)c1ccc(CS(C)(=O)=O)cc1-2 (single isomer, unassigned) [Example 144] |  | 0.318 |  | 0.0188 | > 0.238 |
| Cn1cc2c3c(c[nH]c3c1=O)C(Cn1ccccc1=O)N(c1ccc(F)cc1F)c1ccc(CS(C)(=O)=O)cc1-2 (single isomer, unassigned) [Example 252] |  | 0.108 |  | 0.00224 | 0.0161 |
| CCC1c2c[nH]c3c(=O)n(C)cc(c23)-c2cc(S(=O)(=O)CC)ccc2N1CC1CC1 (stereo not drawn) [Example 3, 4-(cyclopropylmethyl)-3-ethyl-7-(ethylsulfonyl)-10-methyl-3,4-dihydro-1H-1,4,10-triazadibenzo[cd,f]azulen-11(10H)-one] | 0.00891 | 0.0487 | 0.046 |  |  |
| COC(=O)CCC1c2c[nH]c3c(=O)n(C)cc(c23)-c2cc(CS(C)(=O)=O)ccc2N1CC1CC1 (stereo not drawn) [Example 14, methyl 3-(4-(cyclopropylmethyl)-10-methyl-7-((methylsulfonyl)methyl)-11-oxo-3,4,10,11-tetrahydro-1H-1,4,10-triazadibenzo[cd,f]azulen-3-yl)propanoate] | 0.000882 | 0.0146 | 0.0069 |  |  |

Further lines, results first:

| Ki (BRD4 (BDII_E352-M457); [2]) [µM] | EC50 [1] [µM] | Ki (BRD4 (BDI_K57-E168); [2]) [µM] | Ki (BRD4 (BDII_E352-M457); [3]) [µM] | Ki (BRD4 (BDI_K57-E168); [3]) [µM] | Structure (SMILES) |
| --- | --- | --- | --- | --- | --- |
| 0.0245 | 0.544 | 0.158 |  |  | Cn1cc2c3c(c[nH]c3c1=O)C(/C=C/c1ccc(F)cc1)Nc1ccc(CS(C)(=O)=O)cc1-2 (racemic) [Example 20, (E)-3-(4-fluorostyryl)-10-methyl-7-((methylsulfonyl)methyl)-3,4-dihydro-1H-1,4,10-triazadibenzo[cd,f]azulen-11(10H)-one] |
|  | 0.0147 |  | 0.00389 | 0.00245 | CCOC(=O)C1c2c[nH]c3c(=O)n(C)cc(c23)-c2cc(CS(C)(=O)=O)ccc2N1c1ccc(F)cc1 (racemic) [Example 34, ethyl 4-(4-fluorophenyl)-10-methyl-7-((methylsulfonyl)methyl)-11-oxo-3,4,10,11-tetrahydro-1H-1,4,10-triazadibenzo[cd,f]azulene-3-carboxylate] |
|  | 0.0999 |  | 0.0019 | 0.015 | CN(C)CCCC1c2c[nH]c3c(=O)n(C)cc(c23)-c2cc(CS(C)(=O)=O)ccc2N1c1ccc(F)cc1F (racemic) [Example 175, 4-(2,4-difluorophenyl)-3-(3-(dimethylamino)propyl)-10-methyl-7-((methylsulfonyl)methyl)-3,4-dihydro-1H-1,4,10-triazadibenzo[cd,f]azulen-11(10H)-one] |
|  | 0.454 |  | 0.00587 | 0.0657 | Cn1cc2c3c(c[nH]c3c1=O)[C@@H](c1ccccc1)N(c1ccc(F)cc1F)c1ccc(CS(C)(=O)=O)cc1-2 (single isomer, unassigned) [Example 215] |
| 0.00836 | 0.0192 | 0.0246 |  |  | CCS(=O)(=O)c1ccc2c(c1)-c1cn(C)c(=O)c3[nH]cc(c13)CN2CC1CC1 [Example 2, 4-(cyclopropylmethyl)-7-(ethylsulfonyl)-10-methyl-3,4-dihydro-1H-1,4,10-triazadibenzo[cd,f]azulen-11(10H)-one] |
| 0.00599 | 0.0608 | 0.00694 |  |  | Cn1cc2c3c(c[nH]c3c1=O)CN(CC1CC1)c1ncc(S(N)(=O)=O)cc1-2 [Example 10, 4-(cyclopropylmethyl)-10-methyl-11-oxo-3,4,10,11-tetrahydro-1H-1,4,5,10-tetraazadibenzo[cd,f]azulene-7-sulfonamide] |
|  | 0.00164 |  | 0.00257 | 0.00161 | Cc1cnc2c(c1)-c1cn(C)c(=O)c3[nH]cc(c13)CN2c1ccc(F)cc1 [Example 11, 4-(4-fluorophenyl)-7,10-dimethyl-3,4-dihydro-1H-1,4,5,10-tetraazadibenzo[cd,f]azulen-11(10H)-one] |
|  | 0.00726 |  | 0.00768 | 0.00484 | Cn1cc2c3c(c[nH]c3c1=O)CN(CC1CC1)c1ccccc1-2 [Example 13, 4-(cyclopropylmethyl)-10-methyl-3,4-dihydro-1H-1,4,10-triazadibenzo[cd,f]azulen-11(10H)-one] |
| 0.0189 | 0.337 | 0.0926 |  |  | Cn1cc2c3c(c[nH]c3c1=O)C(Cc1ccccc1)Nc1ccc(CS(C)(=O)=O)cc1-2 (stereo not drawn) [Example 16, 3-benzyl-10-methyl-7-((methylsulfonyl)methyl)-3,4-dihydro-1H-1,4,10-triazadibenzo[cd,f]azulen-11(10H)-one] |
